In US10722516B2, “Use of landiolol hydrochloride in the long-term treatment of tachyarrhythmias” (AOP Orphan Pharmaceuticals AG, priority 2013, dated 2020):
Structures can show the parent of a compound that is named as a salt.

Tested on: healthy volunteers
Assay: 24 h long-term infusion study, AOP LDLL600 against esmolol: heart rate
Assay type: in vivo, human
Experimental: A single centre prospective, randomized, double blind, crossover, pharmacokinetic, safety and tolerability study to compare long-term infusion administration of AOP LDLL600 against esmolol in healthy volunteers was performed.
Landiolol hydrochloride lyophilized (LDLL600) comprises 600 mg landiolol hydrochloride, 600 mg mannitol, pH 6.5. The primary packing of LDLL600 is 50 ml vial, the reconstitution volume is 50 ml and the final product concentration is 12 mg/mL landiolol HCl.
12 subjects were administered AOP LDLL600 or Esmolol (Brevibloc, 2500 mg/250 ml) in 1:1 ratio in double-blind, randomized, cross-over setting. PK, systemic cardiovascular and local tolerability and safety of the 24 h-long term infusions of three dose levels of both IMPs during each treatment period were assessed.
Landiolol was infused over 24 h in a dose of 10 μg/KG/min (2 hrs), followed by 20 μg/KG/min (2 hrs), followed by 40 μg/KG/min for 20 hrs.
Dosing algorithm was body weight divided by 20, 10 and 5 in ml/h giving 10, 20 and 40 μg/KG/min at a concentration of 12 mg/ml. No severe adverse drug reactions, mild local reactions, 1 severe local reaction (Esmolol High Dose).
Landiolol was infused over 24 h in a dose of 10, 20 and 40 μg/KG/min, i.e. 10 μg/KG/min landiolol were administered for 2 hrs, followed by 2 hrs administration of 20 μg/KG/min and further followed by 20 hrs administration of 40 μg/KG/min.
Post-infusion follow up measurements were performed immediately after 20 hrs administration study, i.e. 2, 4 min etc. after stop of landiolol administration.

[1] = FU Predose (end of 20 h HD, infusion stop)
[2] = FU post-infusion, 20 h 2 min (2 min after infusion stop)
[3] = FU post-infusion, 20 h 4 min (4 min after infusion stop)
[4] = FU post-infusion, 20 h 6 min (6 min after infusion stop)
[5] = FU post-infusion, 20 h 8 min (8 min after infusion stop)
[6] = FU post-infusion, 20 h 12 min (12 min after infusion stop)
[7] = FU post-infusion, 20 h 16 min (16 min after infusion stop)
[8] = FU post-infusion, 20 h 20 min (20 min after infusion stop)
[9] = FU post-infusion, 20 h 30 min (30 min after infusion stop)
[10] = FU post-infusion, 21 h (1 h after infusion stop)
[11] = FU post-infusion, 22 h (2 h after infusion stop)
[12] = FU post-infusion, 24 h (4 h after infusion stop)
[13] = FU post-infusion, 26 h (6 h after infusion stop)
[14] = HD infusion (landiolol 40, esmolol 200 μg/kg/min, after LD and MD), 2 min
[15] = HD infusion (landiolol 40, esmolol 200 μg/kg/min, after LD and MD), 3 min
[16] = HD infusion (landiolol 40, esmolol 200 μg/kg/min, after LD and MD), 4 min
[17] = HD infusion (landiolol 40, esmolol 200 μg/kg/min, after LD and MD), 6 min
[18] = HD infusion (landiolol 40, esmolol 200 μg/kg/min, after LD and MD), 8 min
[19] = HD infusion (landiolol 40, esmolol 200 μg/kg/min, after LD and MD), 12 min
[20] = HD infusion (landiolol 40, esmolol 200 μg/kg/min, after LD and MD), 16 min
[21] = HD infusion (landiolol 40, esmolol 200 μg/kg/min, after LD and MD), 20 min
[22] = HD infusion (landiolol 40, esmolol 200 μg/kg/min, after LD and MD), 30 min
[23] = HD infusion (landiolol 40, esmolol 200 μg/kg/min, after LD and MD), 60 min
[24] = HD infusion (landiolol 40, esmolol 200 μg/kg/min, after LD and MD), 90 min
[25] = HD infusion (landiolol 40, esmolol 200 μg/kg/min, after LD and MD), 2 h
[26] = HD infusion (landiolol 40, esmolol 200 μg/kg/min, after LD and MD), 4 h
[27] = HD infusion (landiolol 40, esmolol 200 μg/kg/min, after LD and MD), 8 h
[28] = HD infusion (landiolol 40, esmolol 200 μg/kg/min, after LD and MD), 12 h
[29] = HD infusion (landiolol 40, esmolol 200 μg/kg/min, after LD and MD), 16 h
[30] = HD infusion (landiolol 40, esmolol 200 μg/kg/min, after LD and MD), 20 h (end)
[31] = LD infusion (landiolol 10, esmolol 50 μg/kg/min), 2 min
[32] = LD infusion (landiolol 10, esmolol 50 μg/kg/min), 3 min

Compound: CC1(C)OC[C@@H](COC(=O)CCc2ccc(OC[C@@H](O)CNCCNC(=O)N3CCOCC3)cc2)O1 [Landiolol, (−)-[(S)-2,2-dimethyl-1,3-dioxolan-4-yl]methyl 3-[4-[(S)-2-hydroxy-3-(2-morpholinocarbonylamino)ethylamino]propoxy]phenylpropionate monohydrochloride]
- change of heart rate from predose, Mean (SD) [1]: −5.7 (11.51) beats per minute
- heart rate, Mean (SD) [1]: 61.7 (5.87) beats per minute
- change of heart rate from predose, Mean (SD) [2]: −6.8 (11.98) beats per minute
- heart rate, Mean (SD) [2]: 60.6 (5.50) beats per minute
- change of heart rate from predose, Mean (SD) [3]: −6.5 (9.88) beats per minute
- heart rate, Mean (SD) [3]: 60.8 (4.04) beats per minute
- change of heart rate from predose, Mean (SD) [4]: −5.9 (9.79) beats per minute
- heart rate, Mean (SD) [4]: 61.4 (5.43) beats per minute
- change of heart rate from predose, Mean (SD) [5]: −5.7 (10.63) beats per minute
- heart rate, Mean (SD) [5]: 61.7 (5.33) beats per minute
- change of heart rate from predose, Mean (SD) [6]: −3.8 (10.00) beats per minute
- heart rate, Mean (SD) [6]: 63.5 (6.11) beats per minute
- change of heart rate from predose, Mean (SD) [7]: −0.3 (14.69) beats per minute
- heart rate, Mean (SD) [7]: 67.0 (8.92) beats per minute
- change of heart rate from predose, Mean (SD) [8]: −0.3 (11.89) beats per minute
- heart rate, Mean (SD) [8]: 67.0 (8.29) beats per minute
- change of heart rate from predose, Mean (SD) [9]: 2.7 (9.47) beats per minute
- heart rate, Mean (SD) [9]: 70.0 (5.70) beats per minute
- change of heart rate from predose, Mean (SD) [10]: 1.8 (12.70) beats per minute
- heart rate, Mean (SD) [10]: 69.2 (9.64) beats per minute
- change of heart rate from predose, Mean (SD) [11]: −0.5 (9.97) beats per minute
- heart rate, Mean (SD) [11]: 66.8 (8.43) beats per minute
- change of heart rate from predose, Mean (SD) [12]: 4.2 (10.34) beats per minute
- heart rate, Mean (SD) [12]: 71.5 (4.96) beats per minute
- change of heart rate from predose, Mean (SD) [13]: 5.3 (9.97) beats per minute
- heart rate, Mean (SD) [13]: 72.6 (5.26) beats per minute
- change of heart rate from predose, Mean (SD) (HD Predose (end of 2 h MD)): −11.3 (9.41) beats per minute
- heart rate, Mean (SD) (HD Predose (end of 2 h MD)): 56.1 (7.38) beats per minute
- change of heart rate from predose, Mean (SD) [14]: −9.6 (8.69) beats per minute
- heart rate, Mean (SD) [14]: 57.8 (5.43) beats per minute
- change of heart rate from predose, Mean (SD) [15]: −9.9 (9.92) beats per minute
- heart rate, Mean (SD) [15]: 57.4 (6.40) beats per minute
- change of heart rate from predose, Mean (SD) [16]: −12.6 (9.52) beats per minute
- heart rate, Mean (SD) [16]: 54.8 (5.45) beats per minute
- change of heart rate from predose, Mean (SD) [17]: −9.7 (11.01) beats per minute
- heart rate, Mean (SD) [17]: 57.7 (7.38) beats per minute
- change of heart rate from predose, Mean (SD) [18]: −10.7 (10.76) beats per minute
- heart rate, Mean (SD) [18]: 56.7 (6.62) beats per minute
- change of heart rate from predose, Mean (SD) [19]: −9.4 (12.21) beats per minute
- heart rate, Mean (SD) [19]: 57.9 (8.13) beats per minute
- change of heart rate from predose, Mean (SD) [20]: −11.3 (10.71) beats per minute
- heart rate, Mean (SD) [20]: 56.0 (6.80) beats per minute
- change of heart rate from predose, Mean (SD) [21]: −11.4 (9.74) beats per minute
- heart rate, Mean (SD) [21]: 55.9 (6.35) beats per minute
- change of heart rate from predose, Mean (SD) [22]: −10.5 (10.30) beats per minute
- heart rate, Mean (SD) [22]: 56.8 (7.23) beats per minute
- change of heart rate from predose, Mean (SD) [23]: −5.4 (13.14) beats per minute
- heart rate, Mean (SD) [23]: 61.9 (8.93) beats per minute
- change of heart rate from predose, Mean (SD) [24]: −4.8 (11.24) beats per minute
- heart rate, Mean (SD) [24]: 62.5 (5.95) beats per minute
- change of heart rate from predose, Mean (SD) [25]: −3.0 (9.59) beats per minute
- heart rate, Mean (SD) [25]: 64.3 (5.25) beats per minute
- change of heart rate from predose, Mean (SD) [26]: −6.9 (11.24) beats per minute
- heart rate, Mean (SD) [26]: 60.4 (5.25) beats per minute
- change of heart rate from predose, Mean (SD) [27]: −9.8 (10.39) beats per minute
- heart rate, Mean (SD) [27]: 57.5 (5.96) beats per minute
- change of heart rate from predose, Mean (SD) [28]: −10.8 (10.17) beats per minute
- heart rate, Mean (SD) [28]: 56.5 (6.08) beats per minute
- change of heart rate from predose, Mean (SD) [29]: −13.8 (10.01) beats per minute
- heart rate, Mean (SD) [29]: 53.6 (4.89) beats per minute
- change of heart rate from predose, Mean (SD) [30]: −5.7 (11.51) beats per minute
- heart rate, Mean (SD) [30]: 61.7 (5.87) beats per minute
- change of heart rate from predose, Mean (SD) [31]: −1.8 (7.77) beats per minute
- heart rate, Mean (SD) [31]: 65.6 (5.09) beats per minute
- change of heart rate from predose, Mean (SD) [32]: −2.5 (7.48) beats per minute
- heart rate, Mean (SD) [32]: 64.8 (6.82) beats per minute
- change of heart rate from predose, Mean (SD) (LD infusion (landiolol 10, esmolol 50 μg/kg/min), 4 min): −2.8 (6.38) beats per minute
